Measured values as given in patent publication US11166460B2, “α-amino acrylate microbicide, and preparation method therefor and uses thereof” (priority 2017, dated 2021).
In brackets after ≈: the same amount, converted by molar mass. Where two headings read alike, the source gives them in different places.

How the values were obtained:
[1] = test system: tobacco mosaic virus (TMV); assay: Anti-TMV protective activity (protection mode), live friction inoculation on tobacco seedlings; type: in vivo; conditions: Tobacco mosaic virus, read-out: Anti-TMV activity, Protection effect (inhibition)
Physalospora piricola = assay: Fungicidal activity, fungi growth rate method, PP; type: cell-based; conditions: 50 μg/mL
Botrytis cinerea = assay: Fungicidal activity, fungi growth rate method, BC; type: cell-based; conditions: Botrytis cinerea, 50 μg/mL
[2] = test system: tobacco mosaic virus (TMV); assay: Anti-TMV inactivation activity (inactivation mode), compound mixed with TMV before inoculation of tobacco leaves; type: in vivo; conditions: Tobacco mosaic virus, read-out: Anti-TMV activity, Inactivation effect (inhibition)
[3] = test system: Phytophthora infestans (Mont) de Bary; assay: microbe, parasite or virus in culture; type: cell-based; conditions: Phytophthora infestans
wheat Gibberella zeae = assay: microbe, parasite or virus in culture; type: cell-based; conditions: Fusarium graminearum
Alternaria solani = assay: Fungicidal activity, fungi growth rate method, AS; type: cell-based; conditions: Alternaria solani, 50 μg/mL
Rhizoctonia cerealis = assay: Fungicidal activity, fungi growth rate method, RC; type: cell-based; conditions: Ceratobasidium cereale, 50 μg/mL
Sclerotinia sclerotiorum = assay: microbe, parasite or virus in culture; type: cell-based; conditions: Sclerotinia sclerotiorum; for inhibition at 50 µg/mL: 50 μg/mL
[4] = test system: tobacco mosaic virus (TMV); assay: Anti-TMV curative activity (treatment mode), live friction inoculation on tobacco seedlings; type: in vivo; conditions: Tobacco mosaic virus, read-out: Anti-TMV activity, Curative effect (inhibition), 100 μg/mL, tobacco seedlings, checked on seventh day
[5] = test system: tobacco mosaic virus (TMV); assay: Anti-TMV inducing activity (induction mode), tobacco seedlings; type: in vivo; conditions: Tobacco mosaic virus, read-out: Anti-TMV activity, Induction effect (inhibition), 100 μg/mL, tobacco seedlings
Cercospora arachidicola = assay: Fungicidal activity, fungi growth rate method, CA; type: cell-based; conditions: Mycosphaerella arachidis, 50 μg/mL
Pellicularia sasakii = assay: Fungicidal activity, fungi growth rate method, PS; type: cell-based; conditions: 50 μg/mL
[6] = read-out: Fungicidal activity, inhibition, PP
[7] = read-out: Fungicidal activity, inhibition, BC
[8] = read-out: Fungicidal activity, inhibition, PI
[9] = read-out: Fungicidal activity, inhibition, GZ
[10] = read-out: Fungicidal activity, inhibition, AS
[11] = read-out: Fungicidal activity, inhibition, RC
[12] = read-out: Fungicidal activity (inhibition) against SS: Sclerotinia sclerotiorum
[13] = read-out: Fungicidal activity, inhibition, SS
[14] = read-out: Fungicidal activity, inhibition, CA
[15] = read-out: Fungicidal activity, inhibition, PS
[16] = read-out: Fungicidal activity (inhibition) against BC: Botrytis cinerea
[17] = read-out: Fungicidal activity (inhibition) against PI: Phytophthora infestans (Mont) de Bary
[18] = read-out: Fungicidal activity (inhibition) against PS: Pellicularia sasakii
[19] = read-out: Fungicidal activity (inhibition) against PP: Physalospora piricola
[20] = read-out: Fungicidal activity (inhibition) against GZ: wheat Gibberella zeae
[21] = read-out: Fungicidal activity (inhibition) against AS: Alternaria solani
[22] = read-out: Fungicidal activity (inhibition) against RC: Rhizoctonia cerealis
[23] = read-out: Fungicidal activity (inhibition) against CA: Cercospora arachidicola

Row | SMILES | inhibition at 100 µg/mL [1] [%] | inhibition at 50 µg/mL (Physalospora piricola; [6]) [%] | inhibition at 50 µg/mL (Botrytis cinerea; [7]) [%] | inhibition at 100 µg/mL [2] [%] | inhibition at 50 µg/mL [3, 8] [%] | inhibition at 50 µg/mL (wheat Gibberella zeae; [9]) [%] | inhibition at 50 µg/mL (Alternaria solani; [10]) [%] | inhibition at 50 µg/mL (Rhizoctonia cerealis; [11]) [%] | inhibition at 50 µg/mL (Sclerotinia sclerotiorum; [12]) [%] | inhibition at 50 µg/mL (Sclerotinia sclerotiorum; [13]) [%] | melting point [°C] | inhibition at 100 µg/mL [4] [%] | inhibition at 100 µg/mL [5] [%] | inhibition at 50 µg/mL (Cercospora arachidicola; [14]) [%] | inhibition at 50 µg/mL (Pellicularia sasakii; [15]) [%] | inhibition at 50 µg/mL (Botrytis cinerea; [16]) [%] | inhibition at 50 µg/mL [3, 17] [%] | inhibition at 50 µg/mL (Pellicularia sasakii; [18]) [%] | other results
1 | O=C(NCc1ccc(Cl)cc1)/C(=C/c1ccccc1)NC(=O)c1ccccc1 [Compound 56, N-[(1Z)-2-phenyl-1-[[(4-chlorophenylmethyl)amino]carbonyl]ethenyl]benzamide] | 0 | 4 | 22 | 58 | 5 | 19 | 24 | 17 | 100 | 100 | 202 to 204 | 30 | 4 | 14 | 12 | – | – | – | EC90 (Sclerotinia sclerotiorum; read-out: EC90 against S. sclerotiorum in vitro): 1260 µg/mL (≈ 3.21 mM)
2 | Cc1nnsc1/C=C(\NC(=O)c1ccccc1)C(=O)N1CCC(O)(c2ccc(Br)cc2)CC1 [Compound 27, (Z)-N-[1-[[4-(4-bromophenyl)-4-hydroxy-1-piperidinyl]carbonyl]-2-[5-(4-methyl-1,2,3-thiadiazol)]ethenyl]benzamide] | 37 | 12 | 26 | 34 | 24 | 57 | 21 | 23 | – | 47 | 212 to 214 | 3 | 0 | 12 | 20 | ~20 | ~20 | ~20 | –
3 | O=C(NC(Cc1ccccc1)C(=O)N1CCC(O)(c2ccc(Br)cc2)CC1)C1CCCCC1 (centres unmarked) [Compound 50, N-[1-[[4-(4-bromophenyl)-4-hydroxy-1-piperidinyl]carbonyl]-2-phenylethyl]cyclohexanecarboxamide] | 47 | 18 | 29 | 34 | 26 | 29 | 29 | 23 | – | 50 | 200 to 202 | 37 | 34 | 26 | 20 | – | – | – | –
4 | O=C(O)/C(=C/c1ccccc1)NC(=O)c1cccs1 [Compound 69, (Z)-2-(2-thiophanoylamino)-3-phenylpropenoic acid] | 27 | 7 | 7 | 1 | 17 | 19 | 17 | 10 | 60 to 80 | 78 | 221 to 223 | 0 | 45 | 16 | 6 | – | – | – | –
5 | O=C(NCc1ccccc1Br)/C(=C/c1ccccc1)NC(=O)c1ccccc1 [Compound 52, N-[(1Z)-2-phenyl-1-[[(2-bromophenylmethyl)amino]carbonyl]ethenyl]benzamide] | 20 | 6 | 18 | 31 | 16 | 29 | 11 | 18 | – | 38 | 178 to 180 | 12 | 47 | 11 | 14 | – | – | – | –
6 | O=C(NC1CC1)/C(=C/c1ccccc1)NC(=O)c1ccccc1 [Compound 39, (Z)-N-[1-[(cyclopropylamino)carbonyl]-2-phenylethenyl]benzamide] | 10 | 3 | 9 | 0 | 11 | 13 | 17 | 3 | 67 | 67 | 185 to 186 | 18 | 34 | 13 | 6 | ≤ 20 | < 25 | < 30 | inhibition at 50 µg/mL (Physalospora piricola; [19]): < 20%; inhibition at 50 µg/mL (wheat Gibberella zeae; [20]): < 45%; inhibition at 50 µg/mL (Alternaria solani; [21]): < 30%; inhibition at 50 µg/mL (Rhizoctonia cerealis; [22]): < 20%; inhibition at 50 µg/mL (Cercospora arachidicola; [23]): < 25%
7 | O=C(NC(Cc1ccccc1)C(=O)N1CCC(c2ccccc2)CC1)c1ccccc1 (centres unmarked) [Compound 48, N-[1-[[4-(4-phenyl)-1-piperidinyl]carbonyl]-2-phenylethyl]benzamide] | 2 | 14 | 17 | 32 | 23 | 11 | 18 | 11 | – | 64 | 143 to 144 | 25 | 27 | 9 | 17 | – | – | – | –
8 | CC(C)(C)OC(=O)N1CCC(c2nc(/C=C(\NC(=O)c3ccccc3)C(=O)N3CCC(O)(c4ccc(Br)cc4)CC3)cs2)CC1 [Compound 29, (Z)-N-[1-[[4-(4-bromophenyl)-4-hydroxy-1-piperidinyl]carbonyl]-2-[4-[2-[4-(1-Boc-piperidine)]thiazol]]ethenyl]benzamide] | 0 | 0 | 7 | 0 | 14 | 3 | 6 | 10 | – | 67 | 166 to 168 | 36 | 2 | 13 | 11 | – | – | – | –
9 | Cc1snnc1/C=C(\NC(=O)c1ccccc1)C(=O)O [Compound 70, (Z)-2-benzoylamino-3-[4-(5-methyl-1,2,3-thiadiazol)]propenoic acid] | 17 | 0 | 12 | 3 | 13 | 21 | 14 | 18 | – | 44 | 190 to 192 | 37 | 37 | 24 | 14 | – | – | – | –
10 | O=C(N/C(=C\c1ccccc1)C(=O)N1CCOCC1)c1ccccc1 [Compound 38, (Z)-N-[1-(4-morpholinylcarbonyl)-2-phenylethenyl]benzamide] | 38 | 0 | 4 | 0 | 11 | 6 | 8 | 9 | 77 | 77 | 147 to 149 | 0 | 46 | 7 | 13 | ≤ 20 | < 25 | < 30 | inhibition at 50 µg/mL (Physalospora piricola; [19]): < 20%; inhibition at 50 µg/mL (wheat Gibberella zeae; [20]): < 45%; inhibition at 50 µg/mL (Alternaria solani; [21]): < 30%; inhibition at 50 µg/mL (Rhizoctonia cerealis; [22]): < 20%; inhibition at 50 µg/mL (Cercospora arachidicola; [23]): < 25%
